This passage reports GI50 and TGI results from PubChem BioAssay (NCI).

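Growth conditions: 96-well plates. Treatment: test compound, 48 hours, 5 concentrations. Analysis: linear interpolation between bracketing concentrations; unreached endpoints set to highest concentration. GI50 is the concentration that inhibits growth by half. TGI marks complete inhibition of growth.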

One assay concerns BT-549 breast. The experiment in a line: NCI-60 cell line screen, 48 h.
For the compound `CCCCCCCC(=O)SCC/C=C/[C@@H]1CC(=O)NCc2cc(ccn2)C2=N[C@@](C)(CS2)C(=O)N[C@@H](C(C)C)C(=O)O1`, the GI50 was 0.0432 µM and the TGI is greater than 33.3 µM.

As for `CSc1nc(NC2OCC(OC(C)=O)C(OC(C)=O)C2OC(C)=O)c(N=CC=Nc2c(NC3OCC(OC(C)=O)C(OC(C)=O)C3OC(C)=O)nc(SC)[nH]c2=O)c(=O)[nH]1` (stereo not drawn), the TGI is greater than 100 µM.

With `N#CC(C#N)=CNC(N)=S`, the TGI was greater than 100 µM.

For `C[C@@H]1CCC2[C@@H](C)[C@@H](OCC(CO[C@H]3OC4O[C@@]5(C)CC[C@H]6[C@H](C)CCC([C@H]3C)[C@@]46OO5)OC(=O)CCC(=O)O)OC3O[C@@]4(C)CC[C@@H]1[C@]32OO4` (stereo partly drawn), the GI50 was 3.74 µM and the TGI was found to be 29.4 µM.

As to `COc1cc(OC)cc(-c2cc(=O)c3c(OC)c(OC)c(OC)c(OC)c3o2)c1`, the TGI was greater than 100 µM.

Take `O=C1OC(O)[C@@H]2[C@H]1[C@H]1CC[C@@H]2O1` (stereo partly drawn): the GI50 was greater than 100 µM and the TGI was greater than 100 µM.

Consider `O=C1c2cc3c(cc2-c2c1c1ccc(F)cc1c(=O)n2CCCNCCO)OCO3`, for which the GI50 was 0.238 µM and the TGI was found to be 1.34 µM.

The compound `CCCCCCCCC/C=C1\CCC(CN2CCOCC2)C1=O` (stereo not drawn) registered a TGI of 3.8 µM.

In turn, `N=Nc1c(OC(=O)Nc2cccc(Cl)c2)[nH]c2ccccc12` registered a TGI of 20.1 µM.

As for `Fc1cc2[nH]ncc2c2c3c(c(-c4cn[nH]c4)nc12)CCCC3`, the GI50 was 1.38 µM and the TGI was found to be 4.94 µM.

As for `CCN(CC)c1ccc(-c2cc(-c3cc(OC)c(OC)c(OC)c3)nc(N3CCOCC3)c2C#N)cc1`, the GI50 is 0.48 µM and the TGI was greater than 100 µM.

For `O=C(CCc1nnc2sc(-c3ccc(Cl)cc3Cl)nn12)c1nc2ncccc2[nH]1`, the GI50 was 1.98 µM and the TGI was found to be 4.36 µM.

Consider `ClCc1cccc(Cn2cnc3ncnc(Cl)c32)c1`, for which the GI50 is 13.1 µM and the TGI came out at 28.6 µM.

Another assay has as its system SF-268 CNS. Kind of assay: NCI-60 cell line screen, 48 h.
Consider `CCCCCCCC(=O)SCC/C=C/[C@@H]1CC(=O)NCc2cc(ccn2)C2=N[C@@](C)(CS2)C(=O)N[C@@H](C(C)C)C(=O)O1`, for which the GI50 is 0.0387 µM and the TGI was greater than 9.59 µM.

`CSc1nc(NC2OCC(OC(C)=O)C(OC(C)=O)C2OC(C)=O)c(N=CC=Nc2c(NC3OCC(OC(C)=O)C(OC(C)=O)C3OC(C)=O)nc(SC)[nH]c2=O)c(=O)[nH]1` (stereo not drawn) showed a TGI greater than 100 µM.

`N#CC(C#N)=CNC(N)=S` registered a TGI greater than 100 µM.

As to `C[C@@H]1CCC2[C@@H](C)[C@@H](OCC(CO[C@H]3OC4O[C@@]5(C)CC[C@H]6[C@H](C)CCC([C@H]3C)[C@@]46OO5)OC(=O)CCC(=O)O)OC3O[C@@]4(C)CC[C@@H]1[C@]32OO4` (stereo partly drawn), the TGI was found to be 20.1 µM.

As for `COc1cc(OC)cc(-c2cc(=O)c3c(OC)c(OC)c(OC)c(OC)c3o2)c1`, the TGI was greater than 100 µM.

As for `O=C1OC(O)[C@@H]2[C@H]1[C@H]1CC[C@@H]2O1` (stereo partly drawn), the GI50 was greater than 100 µM and the TGI is greater than 100 µM.

With `O=C1c2cc3c(cc2-c2c1c1ccc(F)cc1c(=O)n2CCCNCCO)OCO3`, the GI50 was 0.0537 µM and the TGI is 1.16 µM.

Turning to `CCCCCCCCC/C=C1\CCC(CN2CCOCC2)C1=O` (stereo not drawn), the TGI worked out at 18.2 µM.

For the compound `N=Nc1c(OC(=O)Nc2cccc(Cl)c2)[nH]c2ccccc12`, the TGI came out at 27.9 µM.

In the case of `Fc1cc2[nH]ncc2c2c3c(c(-c4cn[nH]c4)nc12)CCCC3`, the GI50 was 1.31 µM and the TGI was determined as 4.01 µM.

On to `CCN(CC)c1ccc(-c2cc(-c3cc(OC)c(OC)c(OC)c3)nc(N3CCOCC3)c2C#N)cc1`, for which the GI50 is 5.96 µM and the TGI was greater than 100 µM.

With `O=C(CCc1nnc2sc(-c3ccc(Cl)cc3Cl)nn12)c1nc2ncccc2[nH]1`, the GI50 is 3.99 µM and the TGI came to 21.4 µM.

With `ClCc1cccc(Cn2cnc3ncnc(Cl)c32)c1`, the GI50 was 1.66 µM and the TGI turned out to be 3.5 µM.

Another assay concerns MDA-MB-435. Kind of assay: NCI-60 cell line screen, 48 h.
On to `CCCCCCCC(=O)SCC/C=C/[C@@H]1CC(=O)NCc2cc(ccn2)C2=N[C@@](C)(CS2)C(=O)N[C@@H](C(C)C)C(=O)O1`, for which the GI50 was 0.0115 µM.

The compound `CSc1nc(NC2OCC(OC(C)=O)C(OC(C)=O)C2OC(C)=O)c(N=CC=Nc2c(NC3OCC(OC(C)=O)C(OC(C)=O)C3OC(C)=O)nc(SC)[nH]c2=O)c(=O)[nH]1` (stereo not drawn) displayed a TGI greater than 100 µM.

On to `N#CC(C#N)=CNC(N)=S`, for which the TGI is greater than 100 µM.

In the case of `C[C@@H]1CCC2[C@@H](C)[C@@H](OCC(CO[C@H]3OC4O[C@@]5(C)CC[C@H]6[C@H](C)CCC([C@H]3C)[C@@]46OO5)OC(=O)CCC(=O)O)OC3O[C@@]4(C)CC[C@@H]1[C@]32OO4` (stereo partly drawn), the GI50 is less than 0.0115 µM and the TGI came out at 13 µM.

Turning to `COc1cc(OC)cc(-c2cc(=O)c3c(OC)c(OC)c(OC)c(OC)c3o2)c1`, the TGI is greater than 100 µM.

As for `O=C1OC(O)[C@@H]2[C@H]1[C@H]1CC[C@@H]2O1` (stereo partly drawn), the GI50 was greater than 100 µM and the TGI is greater than 100 µM.

On to `O=C1c2cc3c(cc2-c2c1c1ccc(F)cc1c(=O)n2CCCNCCO)OCO3`, for which the GI50 is 0.0674 µM and the TGI was found to be 0.955 µM.

As for `CCCCCCCCC/C=C1\CCC(CN2CCOCC2)C1=O` (stereo not drawn), the TGI turned out to be 6.5 µM.

Take `N=Nc1c(OC(=O)Nc2cccc(Cl)c2)[nH]c2ccccc12`: the TGI amounted to 21.3 µM.

Take `Fc1cc2[nH]ncc2c2c3c(c(-c4cn[nH]c4)nc12)CCCC3`: the GI50 was 0.959 µM and the TGI came to 3.61 µM.

Take `CCN(CC)c1ccc(-c2cc(-c3cc(OC)c(OC)c(OC)c3)nc(N3CCOCC3)c2C#N)cc1`: the GI50 was 1.32 µM and the TGI turned out to be 13.7 µM.

With `O=C(CCc1nnc2sc(-c3ccc(Cl)cc3Cl)nn12)c1nc2ncccc2[nH]1`, the GI50 was 1.75 µM and the TGI was found to be 3.68 µM.

Take `ClCc1cccc(Cn2cnc3ncnc(Cl)c32)c1`: the GI50 was 3.46 µM and the TGI came out at 12.9 µM.

The test system of a further assay is SK-MEL-2 melanoma. Kind of assay: NCI-60 cell line screen, 48 h.
As to `CCCCCCCC(=O)SCC/C=C/[C@@H]1CC(=O)NCc2cc(ccn2)C2=N[C@@](C)(CS2)C(=O)N[C@@H](C(C)C)C(=O)O1`, the GI50 was 0.015 µM and the TGI was found to be 0.595 µM.

As to `CSc1nc(NC2OCC(OC(C)=O)C(OC(C)=O)C2OC(C)=O)c(N=CC=Nc2c(NC3OCC(OC(C)=O)C(OC(C)=O)C3OC(C)=O)nc(SC)[nH]c2=O)c(=O)[nH]1` (stereo not drawn), the TGI is greater than 100 µM.

In turn, `N#CC(C#N)=CNC(N)=S` came in with a TGI greater than 100 µM.

Consider `C[C@@H]1CCC2[C@@H](C)[C@@H](OCC(CO[C@H]3OC4O[C@@]5(C)CC[C@H]6[C@H](C)CCC([C@H]3C)[C@@]46OO5)OC(=O)CCC(=O)O)OC3O[C@@]4(C)CC[C@@H]1[C@]32OO4` (stereo partly drawn), for which the GI50 is 4.22 µM and the TGI is greater than 51.6 µM.

`COc1cc(OC)cc(-c2cc(=O)c3c(OC)c(OC)c(OC)c(OC)c3o2)c1` registered a TGI of 55.1 µM.

Turning to `O=C1OC(O)[C@@H]2[C@H]1[C@H]1CC[C@@H]2O1` (stereo partly drawn), the GI50 was 39 µM and the TGI was greater than 82.4 µM.

As to `O=C1c2cc3c(cc2-c2c1c1ccc(F)cc1c(=O)n2CCCNCCO)OCO3`, the GI50 is 0.273 µM and the TGI came to 0.716 µM.

`CCCCCCCCC/C=C1\CCC(CN2CCOCC2)C1=O` (stereo not drawn) came in with a TGI of 14.6 µM.

In turn, `N=Nc1c(OC(=O)Nc2cccc(Cl)c2)[nH]c2ccccc12` gave a TGI of 24.4 µM.

In the case of `Fc1cc2[nH]ncc2c2c3c(c(-c4cn[nH]c4)nc12)CCCC3`, the GI50 was 0.842 µM and the TGI came to 3.46 µM.

For the compound `CCN(CC)c1ccc(-c2cc(-c3cc(OC)c(OC)c(OC)c3)nc(N3CCOCC3)c2C#N)cc1`, the GI50 was 3.15 µM and the TGI is greater than 26.2 µM.

`O=C(CCc1nnc2sc(-c3ccc(Cl)cc3Cl)nn12)c1nc2ncccc2[nH]1`: the GI50 is 2.59 µM and the TGI worked out at 7.27 µM.

Turning to `ClCc1cccc(Cn2cnc3ncnc(Cl)c32)c1`, the GI50 is 5.76 µM and the TGI was determined as 22.8 µM.

Another assay relates to NCI-H23 lung. The experiment in a line: NCI-60 cell line screen, 48 h.
In the case of `CCCCCCCC(=O)SCC/C=C/[C@@H]1CC(=O)NCc2cc(ccn2)C2=N[C@@](C)(CS2)C(=O)N[C@@H](C(C)C)C(=O)O1`, the GI50 is 0.0394 µM and the TGI is greater than 33.3 µM.

In turn, `CSc1nc(NC2OCC(OC(C)=O)C(OC(C)=O)C2OC(C)=O)c(N=CC=Nc2c(NC3OCC(OC(C)=O)C(OC(C)=O)C3OC(C)=O)nc(SC)[nH]c2=O)c(=O)[nH]1` (stereo not drawn) came in with a TGI greater than 100 µM.

`N#CC(C#N)=CNC(N)=S` had a TGI greater than 100 µM.

As for `C[C@@H]1CCC2[C@@H](C)[C@@H](OCC(CO[C@H]3OC4O[C@@]5(C)CC[C@H]6[C@H](C)CCC([C@H]3C)[C@@]46OO5)OC(=O)CCC(=O)O)OC3O[C@@]4(C)CC[C@@H]1[C@]32OO4` (stereo partly drawn), the GI50 is 0.0101 µM and the TGI was found to be 11.3 µM.

Regarding `COc1cc(OC)cc(-c2cc(=O)c3c(OC)c(OC)c(OC)c(OC)c3o2)c1`, the TGI was greater than 100 µM.

Turning to `O=C1OC(O)[C@@H]2[C@H]1[C@H]1CC[C@@H]2O1` (stereo partly drawn), the GI50 is greater than 100 µM and the TGI is greater than 100 µM.

`O=C1c2cc3c(cc2-c2c1c1ccc(F)cc1c(=O)n2CCCNCCO)OCO3`: the GI50 was 0.0304 µM and the TGI was found to be 0.147 µM.

As to `CCCCCCCCC/C=C1\CCC(CN2CCOCC2)C1=O` (stereo not drawn), the TGI was 9.18 µM.

Compound `N=Nc1c(OC(=O)Nc2cccc(Cl)c2)[nH]c2ccccc12` displayed a TGI of 12.1 µM.

For the compound `Fc1cc2[nH]ncc2c2c3c(c(-c4cn[nH]c4)nc12)CCCC3`, the GI50 is 0.958 µM and the TGI was 4.69 µM.

`CCN(CC)c1ccc(-c2cc(-c3cc(OC)c(OC)c(OC)c3)nc(N3CCOCC3)c2C#N)cc1`: the GI50 is 5.25 µM and the TGI is greater than 100 µM.

In the case of `O=C(CCc1nnc2sc(-c3ccc(Cl)cc3Cl)nn12)c1nc2ncccc2[nH]1`, the GI50 was 1.76 µM and the TGI amounted to 4.41 µM.

Consider `ClCc1cccc(Cn2cnc3ncnc(Cl)c32)c1`, for which the GI50 is 1.23 µM and the TGI is 3.38 µM.
